# Assay results taken from ChEMBL document CHEMBL5107977, “Inhibition of MARK4 by serotonin as an attractive therapeutic approach to combat Alzheimer's disease and neuroinflammation” (RSC Med Chem, 2022).
# Tests used:
# [1] = target: T1, MAP/microtubule affinity-regulating kinase 4 (Homo sapiens) (UniProt Q96L34); experiment: Binding affinity to MARK4 (unknown origin) assessed as binding constant by fluorescence binding assay based spectroscopy
# T1 sequence (whole entry): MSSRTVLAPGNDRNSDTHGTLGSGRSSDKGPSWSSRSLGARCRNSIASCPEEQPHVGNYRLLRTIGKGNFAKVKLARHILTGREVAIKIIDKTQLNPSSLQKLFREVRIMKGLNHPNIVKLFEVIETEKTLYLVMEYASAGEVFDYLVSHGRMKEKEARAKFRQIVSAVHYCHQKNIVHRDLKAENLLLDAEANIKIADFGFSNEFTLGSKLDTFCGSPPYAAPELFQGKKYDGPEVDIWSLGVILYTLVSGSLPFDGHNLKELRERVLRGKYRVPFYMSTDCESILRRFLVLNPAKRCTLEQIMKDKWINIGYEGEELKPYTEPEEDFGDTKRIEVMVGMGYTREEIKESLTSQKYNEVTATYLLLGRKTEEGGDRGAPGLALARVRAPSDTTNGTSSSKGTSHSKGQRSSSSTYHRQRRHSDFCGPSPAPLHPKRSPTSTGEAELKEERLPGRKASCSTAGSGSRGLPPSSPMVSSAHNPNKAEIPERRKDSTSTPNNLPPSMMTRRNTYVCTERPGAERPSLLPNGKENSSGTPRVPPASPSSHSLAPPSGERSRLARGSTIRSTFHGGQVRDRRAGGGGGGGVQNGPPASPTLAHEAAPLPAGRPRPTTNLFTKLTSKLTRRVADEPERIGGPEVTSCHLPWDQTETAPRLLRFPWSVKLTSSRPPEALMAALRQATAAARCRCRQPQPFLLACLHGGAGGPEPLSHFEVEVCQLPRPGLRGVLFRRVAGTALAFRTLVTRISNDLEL
# [2] = target: T2, MAP/microtubule affinity-regulating kinase 4 (Homo sapiens, UniProt Q96L34); experiment: Inhibition of MARK4 (unknown origin) ATPase activity using ATP as substrate incubated for 1.5 hr in presence of MgCl2 by Biomol green reagent based ELISA
# T2 sequence (Q96L34 whole entry): T1 sequence (whole entry)
# [3] = target: T1, MAP/microtubule affinity-regulating kinase 4 (Homo sapiens); experiment: Binding affinity to MARK4 (unknown origin) assessed as Gibbs free energy change by MM-GBSA method
# [4] = target: T1, MAP/microtubule affinity-regulating kinase 4 (Homo sapiens); experiment: Binding affinity to MARK4 (unknown origin) assessed as change in enthalpy by isothermal titration calorimetry
# [5] = target: T1, MAP/microtubule affinity-regulating kinase 4 (Homo sapiens); experiment: Binding affinity to MARK4 (unknown origin) assessed as association constant by isothermal titration calorimetry
# [6] = target: T1, MAP/microtubule affinity-regulating kinase 4 (Homo sapiens); experiment: Binding affinity to MARK4 (unknown origin) assessed as change in entropy by isothermal titration calorimetry
compound,measurement,setting,value
NCCc1c[nH]c2ccc(O)cc12 [SEROTONIN],K,[1],0.3 10^6/M
same,IC50,[2],2990 nM
same,deltaG,[3],-32.8 kcal/mol
same,deltaH,[4],-88200 cal/mol
same,Ka,[5],148 10^4/M
same,deltaS,[6],-286 cal/mol/deg
